Among the data in patent US6573293B2, “Pyrrole substituted 2-indolinone protein kinase inhibitors” (Sugen, Inc., priority 2000, dated 2003) are IC50 values, retold here.

Each structure is given as a SMILES string.

For one experiment, the target named is T1, GST-Flk1 (Mus musculus, UniProt P35918).
T1 construct: GST-Flk1cd purified from sf9 recombinant baculovirus transformation; host or cells: Sf9 (baculovirus)
Put plainly: GST-FLK-1 bioassay (bio flkGST). Format: biochemical.

A further experiment has as its target T2, PDGFR-β (Homo sapiens, UniProt P09619).
T2 construct: host or cells: NIH 3T3
Kind of experiment: PDGFR bioassay (bio PDGF). Format: biochemical.

Experiment [1] has as its target T3, EGFR (Homo sapiens, UniProt P00533).
T3 construct: A431 cell lysate (SUGEN, Inc.); host or cells: A431
Put plainly: EGFR bioassay (bio EGF). Format: biochemical.
Protocol: This assay is used to the in vitro kinase activity of FGF1-R in an ELISA assay.
1. Corning 96-well Elisa plates.
2. SUMO1 monoclonal anti-EGFR antibody (SUGEN, Inc.).
5. Blocking Buffer: for 100 ml, mix 5.0 g Carnation Instant Non-fat Milk® with 100 ml of PBS.
6. A431 cell lysate (SUGEN, Inc.).
9. […] This reagent should be made up immediately prior to use and kept on ice.
11. […] Prepare just prior to use, keep on ice.
12. NUNC 96-well V bottom polypropylene plates.
14. Rabbit polyclonal anti-phosphotyrosine serum (SUGEN, Inc.).
15. Goat anti-rabbit IgG peroxidase conjugate (Biosource Cat. No. ALI0404).
17. 30% Hydrogen peroxide.
1. Coat Corning 96 well ELISA plates with 0.5 μg SUMO1 in 100 μl PBS per well, store overnight at 4° C.
2. Remove unbound SUMO1 from wells by inverting plate to remove liquid. Wash 1×with dH2O. Pat the plate on a paper towel to remove excess liquid.
3. Add 150 μl of Blocking Buffer to each well. Incubate, with shaking, for 30 min. at room temperature.
4. Wash plate 3×with deionized water, then once with TBST. Pat plate on a paper towel to remove excess liquid and bubbles.
5. Dilute lysate in PBS (7 μg lysate/100 μl PBS).
6. Add 100 μl of diluted lysate to each well. Shake at room temperature for 1 hr.
7. Wash plates as in 4, above.
8. Add 120 μl TBS to ELISA plate containing captured EGFR.
10. Add 13.5 μl diluted test compound to ELISA plate. To control wells, add 13.5 μl TBS in 10% DMSO.
11. Incubate, with shaking, for 30 minutes at room temperature.
12. Add 15 μl phosphorylation mix to all wells except negative control well. Final well volume should be approximately 150 μl with 3 μM ATP/5 mM MnCl2 final concentration in each well. Incubate with shaking for 5 minutes.
13. Stop reaction by adding 16.5 μl of EDTA solution while shaking. Shake for additional 1 min.
14. Wash 4×with deionized water, 2×with TBST.
15. Add 100 μl anti-phosphotyrosine (1:3000 dilution in TBST) per well. Incubate, with shaking, for 30-45 min. at room temperature.
17. […] Incubate with shaking for 30 min. at room temperature.
19. Add 100 μl of ABTS/H2O2 solution to each well.
20. Incubate 5 to 10 minutes with shaking. Remove any bubbles.
21. If necessary, stop reaction by adding 100 μl 0.2 M HCl per well.

Experiment [2] deals with T3, EGFR. Put plainly: cell EGF assay. Format: cell-based. The procedure:
Several of the assays described herein are performed in an ELISA (Enzyme-Linked Immunosorbent Sandwich Assay) format (Voller, et al., 1980, “Enzyme-Linked Immunosorbent Assay,” Manual of Clinical Immunology, 2d ed., Rose and Friedman, Am. Soc. Of Microbiology, Washington, D.C., pp. 359-371). The general procedure is as follows: a compound is introduced to cells expressing the test kinase, either naturally or recombinantly, for a selected period of time after which, if the test kinase is a receptor, a ligand known to activate the receptor is added. The cells are lysed and the lysate is transferred to the wells of an ELISA plate previously coated with a specific antibody recognizing the substrate of the enzymatic phosphorylation reaction. Non-substrate components of the cell lysate are washed away and the amount of phosphorylation on the substrate is detected with an antibody specifically recognizing phosphotyrosine compared with control cells that were not contacted with a test compound.

Another experiment addresses T4, HER-2 kinase (Homo sapiens, UniProt P04626).
T4 construct: Use EGFr/HER-2 chimera/3T3-C7 cell line for this assay; It is expressed in mouse NIH 3T3 clone C7 cells; P00533 (Epidermal growth factor receptor)
Kind of experiment: Cellular HER-2 kinase assay. The following applies: read-out: Her2 Kinase IC50. Format: cell-based.

T1 sequence (P35918 784-1345 limits assumed): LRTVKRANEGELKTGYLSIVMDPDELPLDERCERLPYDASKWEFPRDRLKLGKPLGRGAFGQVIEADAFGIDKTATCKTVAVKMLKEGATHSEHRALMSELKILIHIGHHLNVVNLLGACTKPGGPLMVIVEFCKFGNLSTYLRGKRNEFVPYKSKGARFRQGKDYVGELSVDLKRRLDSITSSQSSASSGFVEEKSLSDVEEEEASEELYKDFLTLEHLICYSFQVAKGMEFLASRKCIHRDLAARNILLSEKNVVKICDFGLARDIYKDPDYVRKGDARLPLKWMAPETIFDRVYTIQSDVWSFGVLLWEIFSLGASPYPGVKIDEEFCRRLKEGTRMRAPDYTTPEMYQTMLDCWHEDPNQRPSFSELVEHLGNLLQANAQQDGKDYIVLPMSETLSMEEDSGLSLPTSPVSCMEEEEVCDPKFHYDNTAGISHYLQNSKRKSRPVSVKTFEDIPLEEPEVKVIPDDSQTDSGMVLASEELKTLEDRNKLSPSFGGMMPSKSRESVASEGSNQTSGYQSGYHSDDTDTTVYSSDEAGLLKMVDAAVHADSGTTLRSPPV
T2 sequence (P09619 33-1106): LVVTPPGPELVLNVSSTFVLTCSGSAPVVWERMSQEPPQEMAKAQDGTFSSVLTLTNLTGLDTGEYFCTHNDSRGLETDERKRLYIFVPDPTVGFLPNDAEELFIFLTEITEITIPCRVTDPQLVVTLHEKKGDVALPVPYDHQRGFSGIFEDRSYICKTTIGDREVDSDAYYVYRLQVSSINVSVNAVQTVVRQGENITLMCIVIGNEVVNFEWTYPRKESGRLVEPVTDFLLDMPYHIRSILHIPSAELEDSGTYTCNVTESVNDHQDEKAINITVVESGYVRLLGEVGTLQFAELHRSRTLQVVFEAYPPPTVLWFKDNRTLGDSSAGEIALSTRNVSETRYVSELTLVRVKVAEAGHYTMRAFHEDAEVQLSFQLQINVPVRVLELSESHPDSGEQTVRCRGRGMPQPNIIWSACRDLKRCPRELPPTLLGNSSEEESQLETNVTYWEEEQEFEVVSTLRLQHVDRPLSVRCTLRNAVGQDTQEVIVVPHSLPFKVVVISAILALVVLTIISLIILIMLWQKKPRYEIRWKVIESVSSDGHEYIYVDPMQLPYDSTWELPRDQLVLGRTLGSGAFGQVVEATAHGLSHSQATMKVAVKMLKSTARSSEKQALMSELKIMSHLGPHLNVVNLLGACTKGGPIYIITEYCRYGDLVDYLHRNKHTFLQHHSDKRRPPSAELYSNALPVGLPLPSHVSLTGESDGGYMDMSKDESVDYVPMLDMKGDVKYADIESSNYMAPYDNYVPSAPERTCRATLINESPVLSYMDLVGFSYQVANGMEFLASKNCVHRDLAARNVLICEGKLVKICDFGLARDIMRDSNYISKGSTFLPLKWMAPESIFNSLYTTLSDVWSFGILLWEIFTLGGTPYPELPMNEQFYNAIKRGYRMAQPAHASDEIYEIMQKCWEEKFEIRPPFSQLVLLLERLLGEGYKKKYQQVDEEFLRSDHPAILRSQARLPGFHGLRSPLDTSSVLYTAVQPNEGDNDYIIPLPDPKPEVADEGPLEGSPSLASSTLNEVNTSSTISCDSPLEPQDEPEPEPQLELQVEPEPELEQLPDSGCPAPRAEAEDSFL
T4 sequence (P04626 720-987 limits assumed): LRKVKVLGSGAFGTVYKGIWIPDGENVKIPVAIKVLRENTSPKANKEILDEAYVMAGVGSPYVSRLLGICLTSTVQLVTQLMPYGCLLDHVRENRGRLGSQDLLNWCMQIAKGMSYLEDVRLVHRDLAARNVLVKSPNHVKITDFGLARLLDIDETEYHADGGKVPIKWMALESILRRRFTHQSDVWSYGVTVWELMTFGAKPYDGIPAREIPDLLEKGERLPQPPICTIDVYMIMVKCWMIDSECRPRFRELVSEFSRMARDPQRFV
T3 sequence (P00533 25-1210): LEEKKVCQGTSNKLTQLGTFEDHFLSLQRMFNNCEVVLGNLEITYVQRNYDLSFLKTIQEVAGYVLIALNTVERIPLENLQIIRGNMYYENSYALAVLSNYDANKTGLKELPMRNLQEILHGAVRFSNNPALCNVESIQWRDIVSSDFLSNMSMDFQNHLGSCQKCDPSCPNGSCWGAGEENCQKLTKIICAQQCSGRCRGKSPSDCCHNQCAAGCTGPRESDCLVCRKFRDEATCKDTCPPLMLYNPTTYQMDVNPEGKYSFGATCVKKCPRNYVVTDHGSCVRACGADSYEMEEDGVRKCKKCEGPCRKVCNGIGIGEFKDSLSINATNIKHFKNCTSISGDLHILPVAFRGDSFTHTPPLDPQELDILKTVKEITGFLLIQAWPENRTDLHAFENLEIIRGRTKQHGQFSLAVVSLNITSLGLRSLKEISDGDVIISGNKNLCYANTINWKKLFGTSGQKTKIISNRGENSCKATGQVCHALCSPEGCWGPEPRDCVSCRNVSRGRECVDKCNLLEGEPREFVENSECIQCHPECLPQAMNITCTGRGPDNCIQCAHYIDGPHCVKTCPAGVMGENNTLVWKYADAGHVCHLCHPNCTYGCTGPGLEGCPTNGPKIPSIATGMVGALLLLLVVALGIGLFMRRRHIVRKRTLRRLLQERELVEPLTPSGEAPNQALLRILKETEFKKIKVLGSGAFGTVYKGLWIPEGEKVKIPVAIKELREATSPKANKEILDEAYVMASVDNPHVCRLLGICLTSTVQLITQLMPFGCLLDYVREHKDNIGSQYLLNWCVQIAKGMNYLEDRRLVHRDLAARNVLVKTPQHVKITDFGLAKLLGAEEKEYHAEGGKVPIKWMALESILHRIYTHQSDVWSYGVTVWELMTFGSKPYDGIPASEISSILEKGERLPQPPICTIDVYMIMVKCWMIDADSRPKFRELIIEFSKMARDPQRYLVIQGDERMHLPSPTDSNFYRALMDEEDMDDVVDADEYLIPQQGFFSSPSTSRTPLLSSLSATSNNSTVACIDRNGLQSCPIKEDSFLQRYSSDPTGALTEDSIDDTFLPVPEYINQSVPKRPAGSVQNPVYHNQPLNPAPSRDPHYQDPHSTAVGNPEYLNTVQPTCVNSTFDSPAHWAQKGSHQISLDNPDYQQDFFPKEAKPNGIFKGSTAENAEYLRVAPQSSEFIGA
Protocol for PDGFR-β: Corning 96-well Elisa plates
28D4C10 monoclonal anti-PDGFR antibody (SUGEN, Inc.).
Blocking Buffer (same as for EGFR bioassay).
PDGFR-β expressing NIH 3T3 cell lysate (SUGEN, Inc.).
Kinase buffer phosphorylation mix: for 10 ml, mix 250 μl 1M TRIS, 200 μl 5M NaCl, 100 μl 1M MnCl2 and 50 μl 100 mM Triton X-100 in enough dH2O to make 10 ml.
NUNC 96-well V bottom polypropylene plates.
Rabbit polyclonal anti-phosphotyrosine serum (SUGEN, Inc.).
Goat anti-rabbit IgG peroxidase conjugate (Biosource Cat. No. ALI0404).
Hydrogen peroxide, 30% solution.
Coat Corning 96 well ELISA plates with 0.5 μg 28D4C10 in 100 μl PBS per well, store overnight at 4° C.
Remove unbound 28D4C10 from wells by inverting plate to remove liquid. Wash 1×with dH2O. Pat the plate on a paper towel to remove excess liquid.
Add 150 μl of Blocking Buffer to each well. Incubate for 30 min. at room temperature with shaking.
Wash plate 3×with deionized water, then once with TBST. Pat plate on a paper towel to remove excess liquid and bubbles.
Dilute lysate in HNTG (10 μg lysate/100 μl HNTG).
Add 100 μl of diluted lysate to each well. Shake at room temperature for 60 min.
Wash plates as described in Step 4.
Add 80 μl working kinase buffer mix to ELISA plate containing captured PDGFR.
Add 10 μl diluted test compound to ELISA plate. To control wells, add 10 μl TBS+10% DMSO. Incubate with shaking for 30 minutes at room temperature.
Add 10 μl ATP directly to all wells except negative control well (final well volume should be approximately 100 μl with 20 μM ATP in each well.) Incubate 30 minutes with shaking.
Stop reaction by adding 10 μl of EDTA solution to each well.
Wash 4×with deionized water, twice with TBST.
Add 100 μl anti-phosphotyrosine (1:3000 dilution in TBST) per well. Incubate with shaking for 30-45 min. at room temperature.
Incubate with shaking for 30 min. at room temperature.
Add 100 μl of ABTS/H2O2 solution to each well.
Incubate 10 to 30 minutes with shaking. Remove any bubbles.
If necessary stop reaction with the addition of 100 μl 0.2 M HCl per well.

In the case of `Cc1cc(C(=O)O)[nH]c1/C=C1\C(=O)N(C)c2ccccc21` [Example 2, 4-Methyl-5-(1-methyl-2-oxo-1,2-dihydroindol-3-ylidenemethyl)-1H-pyrrole-2-carboxylic acid], the half-maximal inhibitory concentration (IC50) was above 100000 nM at GST-Flk1, above 100 µM against PDGFR-β, above 100 µM on EGFR [1] and above 100 µM against EGFR [2].

Consider `CCN(CC)CCCNC(=O)c1cc(C)c(/C=C2\C(=O)Nc3ccc(Br)cc32)[nH]1` [Example 7, 5-(5-Bromo-2-oxo-1,2-dihydroindol-3-ylidenemethyl)-4-methyl-1H-pyrrole-2-carboxylic acid (3-diethylaminopropyl)amide], for which the IC50 is 7740 nM against GST-Flk1; above 100 µM against PDGFR-β; 5.07 µM against EGFR [1]; 9.8 µM at EGFR [2]; 4.24 µM at HER-2 kinase.

Consider `CCN(CC)CCNC(=O)c1ccc(/C=C2\C(=O)Nc3ccc(Br)cc32)[nH]1` [Example 8, 5-(5-Bromo-2-oxo-1,2-dihydroindol-3-ylidenemethyl)-1H-pyrrole-2-carboxylic acid (2-diethylaminoethyl)amide], for which the IC50 against GST-Flk1 is 12100 nM; against PDGFR-β, above 100 µM; on EGFR [1], 51.3 µM; at EGFR [2], 20.1 µM; on HER-2 kinase, 5.5 µM.

Turning to `CCN(CC)CCNC(=O)c1ccc(/C=C2\C(=O)Nc3cc(-c4ccccc4)ccc32)[nH]1` [Example 9, 5-(2-Oxo-6-phenyl-1,2-dihydroindol-3-ylidenemethyl)-1H-pyrrole-2-carboxylic acid (2-diethylaminoethyl)amide], the IC50 was 960 nM against GST-Flk1; above 100 µM against PDGFR-β; above 100 µM on EGFR [1]; above 100 µM against EGFR [2]; 16.4 µM at HER-2 kinase.

For `CCN(CC)CCN(C)C(=O)c1ccc(/C=C2\C(=O)Nc3ccc(Br)cc32)[nH]1` [Example 10, 5-(5-Bromo-2-oxo-1,2-dihydroindol-3-ylidenemethyl)-1H-pyrrole-2-carboxylic acid (2-diethylaminoethyl)methylamide], the IC50 was 5720 nM against GST-Flk1; above 100 µM on PDGFR-β; 94 µM against EGFR [1]; 15.9 µM against EGFR [2]; 8.06 µM at HER-2 kinase.

Regarding `CCN(CC)CCN(C)C(=O)c1ccc(/C=C2\C(=O)Nc3cc(-c4ccccc4)ccc32)[nH]1` [Example 11, 5-(2-Oxo-6-phenyl-1,2-dihydroindol-3-ylidenemethyl)-1H-pyrrole-2-carboxylic acid (2-diethylaminoethyl)methylamide], the half-inhibitory concentration (IC50) at GST-Flk1 is 9770 nM; at PDGFR-β, above 100 µM; on EGFR [1], above 100 µM; on EGFR [2], above 100 µM; at HER-2 kinase, above 100 µM.

Regarding `CCN(CC)CCCNC(=O)c1c(C(C)C)[nH]c(/C=C2\C(=O)Nc3ccc(Br)cc32)c1-c1ccccc1` [Example 37, 5-(5-Bromo-2-oxo-1,2-dihydroindol-3-ylidenemethyl)-2-isopropyl-4-phenyl-1H-pyrrole-3-carboxylic acid (3-diethylaminopropyl)amide], the IC50 is 220 nM against GST-Flk1; 3.06 µM against PDGFR-β; 10.8 µM on EGFR [1]; 9.84 µM at EGFR [2]; 1.4 µM at HER-2 kinase.

`CC(C)c1[nH]c(/C=C2\C(=O)Nc3ccc(Br)cc32)c(-c2ccccc2)c1C(=O)NCCCN1CCCC1` [Example 38, 5-(5-Bromo-2-oxo-1,2-dihydroindol-3-ylidenemethyl)-2-isopropyl-4-phenyl-1H-pyrrole-3-carboxylic acid (3-pyrrolidin-1-ylpropyl)amide]: the IC50 turned out to be 4170 nM against GST-Flk1; 3.06 µM at PDGFR-β; 6.04 µM against EGFR [1]; 8.97 µM against EGFR [2]; 2.16 µM on HER-2 kinase.

In the case of `CCN(CC)CCNC(=O)c1c(C(C)C)[nH]c(/C=C2\C(=O)Nc3ccc(Br)cc32)c1-c1ccccc1` [Example 39, 5-(5-Bromo-2-oxo-1,2-dihydroindol-3-ylidenemethyl)-2-isopropyl-4-phenyl-1H-pyrrole-3-carboxylic acid (2-diethylaminoethyl)amide], the 50% inhibitory concentration (IC50) against GST-Flk1 came out at 3380 nM; against PDGFR-β, 4.69 µM; against EGFR [1], 3.67 µM; against EGFR [2], 14.5 µM; at HER-2 kinase, 3.53 µM.

For `Cc1[nH]c(/C=C2\C(=O)Nc3ccc(Br)cc32)c(-c2ccccc2)c1C(=O)NCCN1CCCC1` [Example 42, 5-(5-Bromo-2-oxo-1,2-dihydroindol-3-ylidenemethyl)-2-methyl-4-phenyl-1H-pyrrole-3-carboxylic acid (2-pyrrolidin-1-yl-ethyl)amide], the IC50 was determined as 100 nM against GST-Flk1; 0.12 µM against PDGFR-β; 12 µM against EGFR [1]; 74.6 µM against EGFR [2]; 20.4 µM at HER-2 kinase.

Regarding `COc1ccccc1-c1ccc2c(c1)NC(=O)/C2=C\c1[nH]c(C)c(C(=O)NCCN2CCCC2)c1-c1ccccc1` [Example 43, 5-[6-(2-Methoxy-phenyl)-2-oxo-1,2-dihydroindol-3-ylidenemethyl]-2-methyl-4-phenyl-1H-pyrrole-3-carboxylic acid (2-pyrrolidin-1-yl-ethyl)amide], the IC50 against GST-Flk1 was determined as 1120 nM; at PDGFR-β, 8.38 µM; against EGFR [2] it was 37.3 µM; at HER-2 kinase, 53.4 µM.

Regarding `Cc1[nH]c(/C=C2\C(=O)Nc3ccc(Br)cc32)c(-c2ccccc2)c1C(=O)NCCN(C)C` [Example 44, 5-(5-Bromo-2-oxo-1,2-dihydroindol-3-ylidenemethyl)-2-methyl-4-phenyl-1H-pyrrole-3-carboxylic acid (2-dimethylamino-ethyl)amide], the IC50 is below 50 nM against GST-Flk1; 0.02 µM against PDGFR-β; 20.7 µM on EGFR [1]; 67.5 µM against EGFR [2]; 6.99 µM on HER-2 kinase.

As for `CCOC(=O)c1c(C)[nH]c(/C=C2\C(=O)Nc3ccc(Br)cc32)c1-c1ccccc1` [Example 46, 5-(5-Bromo-2-oxo-1,2-dihydroindol-3-ylidenemethyl)-2-methyl-4-phenyl-1H-pyrrole-3-carboxylic acid ethyl ester], the IC50 at GST-Flk1 is 30600 nM; against PDGFR-β, 6.18 µM; against EGFR [1], above 100 µM; against EGFR [2], above 100 µM; at HER-2 kinase, above 100 µM.

As for `COc1cccc(-c2ccc3c(c2)NC(=O)/C3=C\c2[nH]c(C)c(C(=O)NCCN(C)C)c2C)c1` [Example 55, 5-[6-(3-Methoxy-phenyl)-2-oxo-1,2-dihydroindol-3-ylidenemethyl]-2,4-dimethyl-1H-pyrrole-3-carboxylic acid (2-dimethylamino-ethyl)amide], the IC50 against GST-Flk1 was 270 nM; against PDGFR-β, 0.53 µM; against EGFR [1] it was 6.03 µM; against EGFR [2], 36 µM; on HER-2 kinase it was 77.8 µM.

`CCN(CC)CCNC(=O)c1c(C)[nH]c(/C=C2\C(=O)Nc3ccc(-c4ccccc4)cc32)c1C` [Example 56, 2,4-Dimethyl-5-(2-oxo-5-phenyl-1,2-dihydroindol-3-ylidenemethyl)-1H-pyrrole-3-carboxylic acid (2-diethylaminoethyl)amide]: the IC50 against GST-Flk1 was 2320 nM; at PDGFR-β it was 3.19 µM; at EGFR [1], above 100 µM; against EGFR [2] it was 10 µM; at HER-2 kinase, 7.11 µM.

As for `Cc1[nH]c(/C=C2\C(=O)Nc3cc(-c4ccccc4)ccc32)c(C)c1C(=O)NCCN1CCCC1` [Example 60, 2,4-Dimethyl-5-(2-oxo-6-phenyl-1,2-dihydroindol-3-ylidenemethyl)-1H-pyrrole-3-carboxylic acid (2-pyrrolidin-1-yl-ethyl)amide], the IC50 against PDGFR-β is below 0.78 µM; on EGFR [1] it was above 100 µM; at EGFR [2], above 100 µM; at HER-2 kinase, above 100 µM.

For the molecule `Cc1[nH]c(/C=C2\C(=O)Nc3cc(-c4ccccc4)ccc32)c(C)c1C(=O)NCCCn1ccnc1` [Example 61, 2,4-Dimethyl-5-(2-oxo-6-phenyl-1,2-dihydroindol-3-ylidenemethyl)-1H-pyrrole-3-carboxylic acid (3-imidazol-1-ylpropyl)amide], the IC50 is below 0.78 µM against PDGFR-β, above 100 µM on EGFR [1], above 100 µM against EGFR [2] and above 100 µM on HER-2 kinase.

As to `CCN(CC)CCCNC(=O)c1c(C)[nH]c(/C=C2\C(=O)Nc3cc(-c4ccccc4)ccc32)c1C` [Example 68, 2,4-Dimethyl-5-(2-oxo-6-phenyl-1,2-dihydroindol-3-ylidenemethyl)-1H-pyrrole-3-carboxylic acid (3-diethylaminopropyl)amide], the IC50 came out at 1160 nM against GST-Flk1, 0.03 µM against PDGFR-β, 23.5 µM on EGFR [2] and 34.1 µM at HER-2 kinase.

Consider `CCN(CC)CCCNC(=O)c1c(C)[nH]c(/C=C2\C(=O)Nc3cccc(C(=O)Nc4ccc(OC)c(Cl)c4)c32)c1C` [Example 69, 3-[4-(3-Diethylamino-propylcarbamoyl)-3,5-dimethyl-1H-pyrrol-2-ylmethylene]-2-oxo-2,3-dihydro-1H-indole-4-carboxylic acid (3-chloro-4-methoxy-phenyl)amide], for which the IC50 against GST-Flk1 was 300 nM; against PDGFR-β, 56.5 µM; against EGFR [2], 97.5 µM.
